Like-named read-outs stand apart in the source and are kept apart here.
Key:
[1] = 7-day repeat-dose oral toxicokinetics; format: in vivo, Bama minipig; conditions: for Tmax / Cmax / AUC(0-t): Bama, minipig, plasma; for AUC(0-t): read-out: AUC0-24
Description: Toxicokinetics were evaluated as part of a 7-day oral repeat-dose dose range finding study in Bama minipigs. […] On Days 1 and 7, blood was taken for plasma TK at 0 (pre first dose), 0.5, 1, 2, 4, 6 (pre-second dose), 6.5, 7, 8, 10, and 24 hours post-first dose.

[2] = Single oral dose PK; format: in vivo, CD-1 mouse
Description: The PK of ribitol was studied in male and female CD-1 mice following two oral doses at 0.3 and 1.0 g/kg (FIG. 10). Blood samples were collected serially up to 24 hours post dose.

[3] = 28-day repeat-dose oral toxicokinetics; format: in vivo, CD-1 mouse; conditions: for Tmax / Cmax / AUC(0-t): CD-1, mouse, plasma; for AUC(0-t): read-out: AUC0-24
Description: Toxicokinetics of ribitol was evaluated as part of the 28-day toxicology study in male and female CD-1 mice. […] Toxicokinetic animals were 12/sex in the control group and 48/sex/group in the treated groups. Blood samples were collected on Day 1 and Day 28 at pre-first dose, 0.5, 2, 4, 8 (prior to second dose), 8.5, 10, and 24 h.

[4] = Single oral dose PK; format: in vivo; conditions: Bama, minipig, plasma
Description: The PK of ribitol was studied in 3 male and 3 female Bama minipigs following escalating PO dose levels using the same animals with a 48 hour washout period at 0.3 g/kg (Day 1) (FIG. 11A), 1.0 g/kg (Day 3) (FIG. 11B) and 0.3 g/kg TID (Day 16) (FIG. 11C). On Days 1 and 3, blood samples were collected at 0, 0.5, 1, 2, 4, 8, 12, and 24 hours post dose from all animals. On Day 16, blood samples were collected from all animals at 0, 0.5, 1, 2, 4, 6 (pre-second dose), 6.5, 7, 8, 10, 12 (pre-third dose), 12.5, 13, 14, 16, and 24 hours post dose.

[5] = In vitro Ames assay; format: cell-based
[6] = female, po, 0.1 g/kg, 0.1 g/kg BID, Day 1, F
[7] = female, po, 0.1 g/kg, 0.1 g/kg BID, Day 7, F
[8] = female, po, 0.3 g/kg, 0.3 g/kg BID, Day 1, F
[9] = female, po, 0.3 g/kg, 0.3 g/kg BID, Day 7, F
[10] = female, po, 1 g/kg, 1.0 g/kg BID, Day 1, F
[11] = female, po, 1 g/kg, 1.0 g/kg BID, Day 7, F
[12] = male, po, 0.1 g/kg, 0.1 g/kg BID, Day 1, M
[13] = male, po, 0.1 g/kg, 0.1 g/kg BID, Day 7, M
[14] = male, po, 0.3 g/kg, 0.3 g/kg BID, Day 1, M
[15] = male, po, 0.3 g/kg, 0.3 g/kg BID, Day 7, M
[16] = male, po, 1 g/kg, 1.0 g/kg BID, Day 1, M
[17] = male, po, 1 g/kg, 1.0 g/kg BID, Day 7, M
[18] = CD-1, mouse, plasma, single PO 0.3 g/kg, female
[19] = CD-1, mouse, plasma, single PO 0.3 g/kg, male
[20] = CD-1, mouse, plasma, single PO 1.0 g/kg, female
[21] = CD-1, mouse, plasma, single PO 1.0 g/kg, male
[22] = both sexes, po, 0.5 g/kg, 0.5 g/kg/dose BID, Day 1, Mean of sexes
[23] = both sexes, po, 0.5 g/kg, 0.5 g/kg/dose BID, Day 28, Mean of sexes
[24] = both sexes, po, 1 g/kg, 1.0 g/kg/dose BID, Day 1, Mean of sexes
[25] = both sexes, po, 1 g/kg, 1.0 g/kg/dose BID, Day 28, Mean of sexes
[26] = both sexes, po, 1.5 g/kg, 1.5 g/kg/dose BID, Day 1, Mean of sexes
[27] = both sexes, po, 1.5 g/kg, 1.5 g/kg/dose BID, Day 28, Mean of sexes
[28] = female, po, 0.5 g/kg, 0.5 g/kg/dose BID, Day 1, Female
[29] = female, po, 0.5 g/kg, 0.5 g/kg/dose BID, Day 28, Female
[30] = female, po, 1 g/kg, 1.0 g/kg/dose BID, Day 1, Female
[31] = female, po, 1 g/kg, 1.0 g/kg/dose BID, Day 28, Female
[32] = female, po, 1.5 g/kg, 1.5 g/kg/dose BID (3.0 g/kg/day, NOAEL), Day 28, Female
[33] = female, po, 1.5 g/kg, 1.5 g/kg/dose BID, Day 1, Female
[34] = male, po, 0.5 g/kg, 0.5 g/kg/dose BID, Day 1, Male
[35] = male, po, 0.5 g/kg, 0.5 g/kg/dose BID, Day 28, Male
[36] = male, po, 1 g/kg, 1.0 g/kg/dose BID, Day 1, Male
[37] = male, po, 1 g/kg, 1.0 g/kg/dose BID, Day 28, Male
[38] = male, po, 1.5 g/kg, 1.5 g/kg/dose BID (3.0 g/kg/day, NOAEL), Day 28, Male
[39] = male, po, 1.5 g/kg, 1.5 g/kg/dose BID, Day 1, Male

## OC[C@@H](O)[C@@H](O)[C@@H](O)CO [ribitol, (2R,3s,4S)-Pentane-1,2,3,4,5-pentol]
[1]; 7 days, up to 1.0 g/kg/dose BID
  drug accumulation: no apparent accumulation
[1]; both sexes, oral, post first dose, Days 1 and 7, range
  Tmax: 0.5 to 6.5 h
[1]; [6]
  Cmax: 53.1 µg/mL
  Tmax: 3.8 h
  AUC(0-t): 284 µg·h/mL
[1]; [7]
  Cmax: 40.2 µg/mL
  Tmax: 0.8 h
  AUC(0-t): 317 µg·h/mL
[1]; [8]
  Cmax: 112 µg/mL
  Tmax: 0.8 h
  AUC(0-t): 676 µg·h/mL
[1]; [9]
  Cmax: 159 µg/mL
  Tmax: 0.5 h
  AUC(0-t): 784 µg·h/mL
[1]; [10]
  Cmax: 299 µg/mL
  Tmax: 1.3 h
  AUC(0-t): 1750 µg·h/mL
[1]; [11]
  Cmax: 331 µg/mL
  Tmax: 1.3 h
  AUC(0-t): 1870 µg·h/mL
[1]; [12]
  Cmax: 35.5 µg/mL
  Tmax: 3.5 h
  AUC(0-t): 160 µg·h/mL
[1]; [13]
  Cmax: 45.1 µg/mL
  Tmax: 3.5 h
  AUC(0-t): 183 µg·h/mL
[1]; [14]
  Cmax: 117 µg/mL
  Tmax: 6.5 h
  AUC(0-t): 504 µg·h/mL
[1]; [15]
  Cmax: 58.3 µg/mL
  Tmax: 0.5 h
  AUC(0-t): 438 µg·h/mL
[1]; [16]
  Cmax: 308 µg/mL
  Tmax: 3.8 h
  AUC(0-t): 169 µg·h/mL
[1]; [17]
  Cmax: 283 µg/mL
  Tmax: 1.3 h
  AUC(0-t): 1920 µg·h/mL
[2]; CD-1, mouse, plasma, oral, mice, stated for FOB timepoint selection, read-out: Tmax
  Tmax: ~1 h
[2]; [18]
  AUC(0-inf): 55.9 µg·h/mL
  Cmax: 55 µg/mL
[2]; CD-1, mouse, plasma, single PO 0.3 g/kg, female, read-out: % F
  bioavailability: 30.9%
[2]; CD-1, mouse, plasma, single PO 0.3 g/kg, female, read-out: T1/2 (converted)
  half-life: 1.31 h
[2]; CD-1, mouse, plasma, single PO 0.3 g/kg, female, read-out: Tmax
  Tmax: 0.5 h
[2]; [19]
  AUC(0-inf): 41.6 µg·h/mL
  Cmax: 45.6 µg/mL
[2]; CD-1, mouse, plasma, single PO 0.3 g/kg, male, read-out: % F
  bioavailability: 24.6%
[2]; CD-1, mouse, plasma, single PO 0.3 g/kg, male, read-out: T1/2 (converted)
  half-life: 0.677 h
[2]; CD-1, mouse, plasma, single PO 0.3 g/kg, male, read-out: Tmax
  Tmax: 0.5 h
[2]; [20]
  AUC(0-inf): 129 µg·h/mL
  Cmax: 124 µg/mL
[2]; CD-1, mouse, plasma, single PO 1.0 g/kg, female, read-out: % F
  bioavailability: 22.1%
[2]; CD-1, mouse, plasma, single PO 1.0 g/kg, female, read-out: T1/2 (converted)
  half-life: 1.17 h
[2]; CD-1, mouse, plasma, single PO 1.0 g/kg, female, read-out: Tmax
  Tmax: 0.5 h
[2]; [21]
  AUC(0-inf): 173 µg·h/mL
  Cmax: 112 µg/mL
[2]; CD-1, mouse, plasma, single PO 1.0 g/kg, male, read-out: % F
  bioavailability: 30.5%
[2]; CD-1, mouse, plasma, single PO 1.0 g/kg, male, read-out: T1/2 (converted)
  half-life: 1.31 h
[2]; CD-1, mouse, plasma, single PO 1.0 g/kg, male, read-out: Tmax
  Tmax: 0.5 h
[2]; both sexes, CD-1, mouse, plasma, po, read-out: Tmax after oral administration
  Tmax: < 2 h
[2]; both sexes, CD-1, plasma, po, mouse, range over doses and sexes, read-out: oral bioavailability
  bioavailability: 22.1 to 30.9%
[2]; both sexes, CD-1, plasma, po, mouse, range, read-out: T1/2 following the oral dose
  half-life: 0.677 to 1.31 h
[3]; after 28 days repeated oral administration, any dose level
  drug accumulation: no apparent ribitol drug accumulation
[3]; both sexes, oral, post first dose and post second dose, Day 1 or Day 28
  Tmax: 0.5 h
[3]; [22]
  Cmax: 141 µg/mL
  AUC(0-t): 337 µg·h/mL
[3]; [23]
  Cmax: 140 µg/mL
  AUC(0-t): 422 µg·h/mL
[3]; [24]
  Cmax: 257 µg/mL
  AUC(0-t): 540 µg·h/mL
[3]; [25]
  Cmax: 245 µg/mL
  AUC(0-t): 806 µg·h/mL
[3]; [26]
  Cmax: 384 µg/mL
  AUC(0-t): 1020 µg·h/mL
[3]; [27]
  Cmax: 336 µg/mL
  AUC(0-t): 1090 µg·h/mL
[3]; [28]
  Cmax: 157 µg/mL
  Tmax: 8.5 h
  AUC(0-t): 322 µg·h/mL
[3]; [29]
  Cmax: 141 µg/mL
  Tmax: 8.5 h
  AUC(0-t): 393 µg·h/mL
[3]; [30]
  Cmax: 227 µg/mL
  Tmax: 8.5 h
  AUC(0-t): 520 µg·h/mL
[3]; [31]
  Cmax: 252 µg/mL
  Tmax: 0.5 h
  AUC(0-t): 794 µg·h/mL
[3]; [32]
  Cmax: 294 µg/mL
  AUC(0-t): 839 µg·h/mL
[3]; [33]
  Cmax: 334 µg/mL
  Tmax: 8.5 h
  AUC(0-t): 1070 µg·h/mL
[3]; female, po, 1.5 g/kg, 1.5 g/kg/dose BID, Day 28, Female
  Tmax: 8.5 h
[3]; [34]
  Cmax: 124 µg/mL
  Tmax: 0.5 h
  AUC(0-t): 351 µg·h/mL
[3]; [35]
  Cmax: 138 µg/mL
  Tmax: 0.5 h
  AUC(0-t): 450 µg·h/mL
[3]; [36]
  Cmax: 286 µg/mL
  Tmax: 8.5 h
  AUC(0-t): 559 µg·h/mL
[3]; [37]
  Cmax: 238 µg/mL
  Tmax: 8.5 h
  AUC(0-t): 818 µg·h/mL
[3]; [38]
  Cmax: 377 µg/mL
  AUC(0-t): 1340 µg·h/mL
[3]; [39]
  Cmax: 433 µg/mL
  Tmax: 8.5 h
  AUC(0-t): 972 µg·h/mL
[3]; male, po, 1.5 g/kg, 1.5 g/kg/dose BID, Day 28, Male
  Tmax: 8.5 h
[4]; single PO 0.3 g/kg, female
  AUC(0-inf): 245 µg·h/mL
  Cmax: 128 µg/mL
  half-life: 1.23 h
[4]; single PO 0.3 g/kg, female, read-out: % F
  bioavailability: 65.3%
[4]; single PO 0.3 g/kg, female, read-out: Tmax
  Tmax: 0.67 h
[4]; single PO 0.3 g/kg, male
  AUC(0-inf): 210 µg·h/mL
  Cmax: 112 µg/mL
  half-life: 1.6 h
[4]; single PO 0.3 g/kg, male, read-out: % F
  bioavailability: 55.9%
[4]; single PO 0.3 g/kg, male, read-out: Tmax
  Tmax: 0.5 h
[4]; single PO 1.0 g/kg, female
  AUC(0-inf): 878 µg·h/mL
  Cmax: 368 µg/mL
  half-life: 1.43 h
[4]; single PO 1.0 g/kg, female, read-out: % F
  bioavailability: 70.2%
[4]; single PO 1.0 g/kg, female, read-out: Tmax
  Tmax: 0.67 h
[4]; single PO 1.0 g/kg, male
  AUC(0-inf): 869 µg·h/mL
  Cmax: 404 µg/mL
  half-life: 1.47 h
[4]; single PO 1.0 g/kg, male, read-out: % F
  bioavailability: 69.4%
[4]; single PO 1.0 g/kg, male, read-out: Tmax
  Tmax: 0.5 h
[4]; both sexes, po, read-out: Tmax after oral administration
  Tmax: < 2 h
[4]; both sexes, po, range over doses and sexes, read-out: oral bioavailability
  bioavailability: 55.9 to 70.2%
[5]
  genotoxicity: devoid of genotoxicity potential

From patent US20230364118A1, “RIBITOL TREATMENT” (priority 2020, published 2023)
